Laboratory results reported in ChEMBL document CHEMBL1154260, “Synthesis and SAR of alkanediamide-linked bisbenzamidines with anti-trypanosomal and anti-pneumocystis activity” (Bioorg Med Chem Lett, 2009).

Experiments:
[1] = Selectivity index, ratio of IC50 for human A549 cells to IC50 for Pneumocystis carinii
[2] = tested on: A549; experiment: Cytotoxicity against human A549 cells; type: cell-based
[3] = tested on: Trypanosoma brucei rhodesiense; experiment: Antitrypanosomal activity against Multidrug-resistant Trypanosoma brucei rhodesiense KETRI 243; type: functional, organism-based
[4] = tested on: Trypanosoma brucei brucei; experiment: Antitrypanosomal activity against pentamidine-sensitive Trypanosoma brucei brucei LAB 110 EATRO; type: functional, organism-based
[5] = tested on: Nucleic Acid; experiment: Binding affinity to poly(dA-dT)DNA assessed as change in melting temperature; type: nucleic-acid assay
[6] = tested on: Nucleic Acid; experiment: Binding affinity to DNA assessed as change in melting temperature; type: nucleic-acid assay
[7] = Selectivity index, ratio of IC50 for human A549 cells to IC50 for Trypanosoma brucei; type: toxicity, cell-based; settings: read-out: Ratio IC50
[8] = tested on: Pneumocystis carinii; experiment: Antipneumocystis activity against Pneumocystis carinii; type: functional, organism-based

| SMILES | Ratio IC50 [1] | IC50 [2] [µM] | IC50 [3] [µM] | IC50 [4] [µM] | ΔTm [5] [°C] | ΔTm [6] [°C] | selectivity ratio [7] | IC50 [8] [µM] |
| --- | --- | --- | --- | --- | --- | --- | --- | --- |
| N=C(N)c1ccc(NC(=O)CCCCC(=O)Nc2ccc(C(=N)N)cc2)cc1 | 596500 | 1190 | 0.002 | 0.003 | 7.5 | 11.4 | 18900 | – |
| N=C(N)c1ccc(NC(=O)CCC(=O)Nc2ccc(C(=N)N)cc2)cc1 | – | > 44.2 | 2.19 | 9 | 7.5 | 11.4 | – | 0.442 |
| N=C(N)c1ccc(NC(=O)CCCC(=O)Nc2ccc(C(=N)N)cc2)cc1 | – | 2280 | 0.096 | 0.009 | 7.5 | 11.4 | – | 0.003 |
| N=C(N)c1ccc(NC(=O)CCCCCCCC(=O)Nc2ccc(C(=N)N)cc2)cc1 | – | 2.87 | 0.24 | 0.4 | 7.5 | – | – | 2.44 |
| NC(=O)c1ccc(NC(=O)CCCCC(=O)Nc2ccc(C(N)=O)cc2)cc1 | – | – | 1.1 | 2.8 | 7.5 | – | – | > 100 |
| N=C(N)c1ccc(NC(=O)CCCCCCCCCCC(=O)Nc2ccc(C(=N)N)cc2)cc1 | – | 18 | 0.007 | 0.008 | 7.5 | – | – | 3.07 |
| N=C(N)c1cccc(NC(=O)CCCCC(=O)Nc2cccc(C(=N)N)c2)c1 | – | – | 0.021 | 0.041 | 13.8 | 13.8 | – | 33.7 |
| N=C(N)c1ccc(NC(=O)CCCCC(=O)Nc2cccc(C(=N)N)c2)cc1 | – | > 227 | 0.007 | 0.012 | 7.5 | – | 18900 | 2.27 |
| N=C(N)c1ccc(NC(=O)CCCCCCC(=O)Nc2ccc(C(=N)N)cc2)cc1 | – | 176 | 0.001 | 0.003 | 13.2 | 13.2 | 18900 | 1.95 |
| NC(=O)c1cccc(NC(=O)CCCCC(=O)Nc2cccc(C(N)=O)c2)c1 | – | > 261 | 1.97 | – | 7.5 | – | – | > 100 |
| N#Cc1ccc(NC(=O)CCCC(=O)Nc2ccc(C#N)cc2)cc1 | – | – | 7.9 | 6.5 | 7.5 | – | – | – |
| N=C(N)c1ccc(NC(=O)CCCCCCCCC(=O)Nc2ccc(C(=N)N)cc2)cc1 | – | 249 | 0.004 | 0.002 | 7.5 | – | 18900 | 4.28 |
| N=C(N)c1ccc(OCCCCCOc2ccc(C(=N)N)cc2)cc1 [PENTAMIDINE] | – | – | […] | – | 21.6 | – | – | – |
| N=C(N)c1ccc(NC(=O)CCCCCC(=O)Nc2ccc(C(=N)N)cc2)cc1 | – | > 237 | 0.002 | 0.002 | 7.5 | – | 18900 | 2.37 |
